The values below come from patent US20230391772A1, “METHODS AND COMPOSITIONS FOR TARGETED PROTEIN DEGRADATION” (Ranok Therapeutics (Hangzhou) Co. Ltd., priority 2020, published 2023).

The target in test [1] is T1, KRAS(G12C) (Homo sapiens, UniProt P01116, G12C). Kind of test: KRAS(G12C) Western blot protein degradation assay in MIA PaCa-2 cells. To be noted: 48 hr. The format is cell-based. The arrangement: host or cells: LU65A. The method, then: The following cancer cell lines were employed: BT-474 human breast carcinoma (ATCC, #HTB-20); MIA PaCa-2 human pancreatic carcinoma [2 copies KRAS(G12C)](ATCC, #CRL-1420); NCI-H23 human non-small cell lung cancer [1 copy KRAS(G12C)](ATCC, #CRL-5800); NCI-H358 human non-small cell lung cancer [1 copy KRAS(G12C)](ATCC, #CRL-5807); LU65A human lung carcinoma (Pharmaron, Beijing, China). Cell lines were cultured essentially according to ATCC and Pharmaron recommendations.
KRAS(G12C) Western Blot Protein Degradation Assay
The MIA PaCa-2 human pancreatic carcinoma cell line and LU65A human lung cancer cell line, which expresses KRAS(G12C), were seeded in 6- or 12-well tissue culture plates, and after 1 hr, test compounds were added at various concentrations and incubated at 37° C./5% CO2 for 48 hr (MIA Paca-2) and 6 hr (LU65A) respectively. Cells were then washed with cold PBS, aspirated and cold RIPA buffer containing a protease/phosphatase inhibitor cocktail was added to lyse cells. After centrifugation, the total protein concentrations of cell lysates were determined using the BCA protein assay. Samples were normalized for equivalent protein concentrations, 5×SDS-PAGE loading buffer added and denatured at 100° C. for 10 min. 20 μl of each sample/well was loaded on a SDS-PAGE gel and electrophoresed for 20 min at 80 V, then 120 V for 1.5 hr. Gels were then electroblotted to nitrocellulose membranes using a wet-transfer method at 250 mA for 2.5 hr. Membranes were incubated with blocking buffer for 1 hr and washed 3 times with TBST for 5 min. Membranes were then incubated with anti-KRAS (Sigma-Aldrich, #SAB1404011) and anti-β-Actin monoclonal antibodies (Cell Signaling Technology, #3700) diluted in blocking buffer at 4° C. overnight per the manufacturer's recommendations. After washing 3 times, blots were incubated with appropriately labeled secondary antibodies for 1 hr at room temperature and washed again. Fluorescence imaging and quantitation was performed using a LI-COR Odyssey. Results was analyzed using GraphPad Prism 7 software. Compound degradation of was determined by the following equation and DC50 values (the concentration at which 50% of the maximal degradation of KRAS occurs) calculated using GraphPad Prism 7 software:
% Inhibition=100−(D−B)/(S−B)*100%. • S: Fluorescence intensity of cells with antibody • D: Fluorescence intensity of compound-treated cells with antibody • B: Fluorescence intensity of cells without antibody
A general note: A western blot detects proteins with antibodies after separation by electrophoresis.

Test [2] concerns MIA PaCa-2 human pancreatic carcinoma. The experiment in a line: MIA PaCa-2 CCK-8 proliferation assay. The format is cell-based. Conditions: Homo sapiens, MIA PaCa-2, 72 h, MIA PaCa-2 cells. In a few lines: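 Percent inhibition derived from CCK-8 optical signal, normalised between DMSO-only cells (0%) and cell-free medium containing DMSO as background. Cells: MIA PaCa-2 carrying 2 KRAS(G12C) copies; NCI-H358, NCI-H23 carrying 1 copy apiece. Concentrations spanned 1.02 nM–20 μM in threefold increments.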

A further test deals with T2, HSP90a protein (Homo sapiens, UniProt P07900).
T2 construct: purchased BPS Bioscience 50298
The experiment in a line: HSP90α-binding fluorescent polarization (FP) assay, BODIPY-labeled RNK04010 probe. To be noted: FP competition with RNK04010 (BODIPY-labeled), 5 nM, 300 min at 25° C. In a few lines:
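Test compounds (2.5-fold serial dilution, 20 μM to 5.2 nM) competed with a fluorescent tracer for N-terminal HSP90a, with fluorescence polarization as the read-out. FITC-geldanamycin tracer was used at 5 nM final with 120 min incubation at 25° C; BODIPY-labeled RNK04010 was used at 5 nM final with 300 min incubation.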

Test [3] has as its target T1, KRAS(G12C). The experiment in a line: KRAS(G12C)/SOS1 homogeneous time-resolved fluorescence (HTRF) assay. The arrangement: purchased Cisbio 63ADK000CB16PEG. Conditions: absence of GTP, 4° C. for 3 hr, read-out: KRAS (G12C) binding. In a few lines:
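HTRF kit measuring compound-induced block of KRAS(G12C)-SOS1 interaction without GTP. Compounds tested as 3-fold serial dilutions down to 1.02 nM, incubated with reaction components 3 h at 4 °C in sealed plates before fluorescence read.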
A general note: Time-resolved FRET reads energy transfer from a long-lived donor to a nearby acceptor.

The target in test [4] is T1, KRAS(G12C). Kind of test: KRAS(G12C) Western blot protein degradation assay in LU65A cells. It is filed as cell-based. To be noted: 6 hr. The arrangement: LU65A human lung cancer cell line, which expresses KRAS(G12C); host or cells: LU65A. In a few lines:
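Cells treated with compound at various concentrations at 37 °C for 48 hr (MIA PaCa-2) or 6 hr (LU65A), then lysed in RIPA. Protein-normalized lysates immunoblotted for KRAS with β-actin, fluorescence quantified; DC50 is the concentration giving 50% of maximal KRAS degradation.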

T1 sequence (P01116 1-188 isoform P01116-2 G12C): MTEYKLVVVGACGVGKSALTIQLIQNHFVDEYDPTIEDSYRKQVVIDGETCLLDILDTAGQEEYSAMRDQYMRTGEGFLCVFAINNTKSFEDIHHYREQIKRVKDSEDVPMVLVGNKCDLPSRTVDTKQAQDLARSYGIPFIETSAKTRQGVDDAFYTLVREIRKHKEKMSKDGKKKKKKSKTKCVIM

One may read the inhibition as how much of the control response was suppressed. As a reminder, the EC50 is the concentration needed to bring the measured effect to its halfway point. Low values mean higher potency in that assay, high ones lower potency in that assay. Consider `C=CC(=O)N1CCN(c2nc(OC[C@@H]3CCN(C(=O)C4CCN(Cc5ccc(-n6c(C(N)=O)nnc6-c6cc(C(C)C)c(O)cc6O)cc5)CC4)C3)nc3c2CCN(c2cccc4cccc(Cl)c24)C3)C[C@@H]1CC#N` [Compound 183, 4-(4-((4-((R)-3-(((4-((S)-4-acryloyl-3-(cyanomethyl)piperazin-1-yl)-7-(8-chloronaphthalen-1-yl)-5,6,7,8-tetrahydropyrido[3,4-d]pyrimidin-2-yl)oxy)methyl)pyrrolidine-1-carbonyl)piperidin-1-yl)methyl)phenyl)-5-(2,4-dihydroxy-5-isopropylphenyl)-4H-1,2,4-triazole-3-carboxamide], for which the inhibition at 0.1562 µM against KRAS(G12C) [1] (156.2 nM) is under 33%. The molecule further showed an inhibition at 0.3125 µM at KRAS(G12C) [1] (312.5 nM) of under 33%. Besides, the inhibition at 0.625 µM at KRAS(G12C) [1] (625 nM) is under 33%. The molecule further showed an inhibition at 1.25 µM against KRAS(G12C) [1] (1250 nM) of 33 to 66%. The inhibition at 2.5 µM on KRAS(G12C) [1] (2500 nM) lay within 33 to 66%. Also, the inhibition at 5 µM at KRAS(G12C) [1] (5000 nM) is over 66%. The inhibition at 10 µM against KRAS(G12C) [1] (10,000 nM) was over 66%. Also, the EC50 in test [2] is 100 to 1000 nM. The same molecule returned an IC50 on HSP90a protein of 100 to 1000 nM.
By DC50 is commonly meant the concentration giving 50% degradation. As for `C=CC(=O)N1CCN(c2nc(OC[C@@H]3CC[C@H](CN4CCN(Cc5ccc(-n6c(O)nnc6-c6cc(C(C)C)c(O)cc6O)cc5)CC4)N3C)nc3c2CCN(c2cccc4cccc(Cl)c24)C3)C[C@@H]1CC#N` [Compound 326, 2-[(2S)-4-[7-(8-chloronaphthalen-1-yl)-2-{[(2S,5R)-5-{[4-({4-[3-(2,4-dihydroxy-5-isopropylphenyl)-5-hydroxy-1,2,4-triazol-4-yl]-phenyl}methyl)piperazin-1-yl]methyl}-1-methylpyrrolidin-2-yl]methoxy}-5H,6H,8H-pyrido[3,4-d]pyrimidin-4-yl]-1-(prop-2-enoyl)piperazin-2-yl]acetonitrile], the IC50 at KRAS(G12C) [3] and on HSP90a protein was under 100 nM in each case. The molecule further came in with a DC50 at KRAS(G12C) [4] of 100 to 1000 nM. The same molecule yielded an EC50 in test [2] of 100 to 1000 nM.
Take `C=CC(=O)N1CCN(c2nc(OC[C@@H]3C[C@H](N4CCC(C(=O)N5CCN(Cc6ccc(-n7c(C(=O)NC)nnc7-c7cc(C(C)C)c(O)cc7O)cc6)CC5)CC4)CN3C)nc3c2CCN(c2cccc4cccc(Cl)c24)C3)C[C@@H]1CC#N` [Compound 234, 4-{4-[(4-{1-[(3S,5S)-5-({[7-(8-chloronaphthalen-1-yl)-4-[(3S)-3-(cyanomethyl)-4-(prop-2-enoyl)piperazin-1-yl]-5H,6H,8H-pyrido[3,4-d]pyrimidin-2-yl]oxy}methyl)-1-methylpyrrolidin-3-yl]piperidine-4-carbonyl}piperazin-1-yl)methyl]phenyl}-5-(2,4-dihydroxy-5-isopropylphenyl)-N-methyl-1,2,4-triazole-3-carboxamide]: the IC50 at KRAS(G12C) [3] and on HSP90a protein was under 100 nM each time. The molecule further had a DC50 on KRAS(G12C) [4] of over 1000 nM. The EC50 in test [2] lay within 100 to 1000 nM.
As for `C=CC(=O)N1CCN(c2nc(OCCN3CCN(Cc4ccc(-n5c(O)nnc5-c5cc(C)c(O)cc5O)cc4)CC3)nc3c2CCN(c2cccc4cccc(Cl)c24)C3)C[C@@H]1CC#N` [Compound 213, (S)-2-(1-acryloyl-4-(7-(8-chloronaphthalen-1-yl)-2-(2-(4-(4-(3-(2,4-dihydroxy-5-methylphenyl)-5-hydroxy-4H-1,2,4-triazol-4-yl)benzyl)piperazin-1-yl)ethoxy)-5,6,7,8-tetrahydropyrido[3,4-d]pyrimidin-4-yl)piperazin-2-yl)acetonitrile], the values for the IC50 at KRAS(G12C) [3] and at HSP90a protein were 100 to 1000 nM and under 100 nM, respectively. For the same molecule, the DC50 on KRAS(G12C) [4] was over 1000 nM. For the same molecule, the EC50 in test [2] is over 1000 nM.
As for `C=CC(=O)N1CCN(c2nc(OC[C@@H]3C[C@H](N4CCC(C(=O)N5CCC6(CC5)CN(Cc5ccc(-n7c(O)nnc7-c7cc(C(C)C)c(O)cc7O)cc5)C6)CC4)CN3C)nc3c2CCN(c2cccc4cccc(Cl)c24)C3)C[C@@H]1CC#N` [Compound 350, 2-[(2S)-4-[7-(8-chloronaphthalen-1-yl)-2-{[(2S,4S)-4-{4-[2-({4-[3-(2,4-dihydroxy-5-isopropylphenyl)-5-hydroxy-1,2,4-triazol-4-yl]phenyl}methyl)-2,7-diazaspiro [3.5]nonane-7-carbonyl]piperidin-1-yl}-1-methylpyrrolidin-2-yl]methoxy}-5H,6-H,8H-pyrido[3,4-d]pyrimidin-4-yl]-1-(prop-2-enoyl)piperazin-2-yl]acetonitrile], the IC50 on KRAS(G12C) [3] and at HSP90a protein was under 100 nM throughout. At KRAS(G12C) [4], this molecule registered a DC50 of 100 to 1000 nM. The EC50 in test [2] lay within 100 to 1000 nM.
On to `C=CC(=O)N1CCN(c2nc(OC[C@@H]3C[C@H](N4CCC5(CCN(Cc6ccc(-n7c(O)nnc7-c7cc(C(C)C)c(O)cc7O)cc6)CC5)CC4)CN3C)nc3c2CCN(c2cccc4cccc(Cl)c24)C3)C[C@@H]1CC#N` [Compound 334, 2-[(2S)-4-[7-(8-chloronaphthalen-1-yl)-2-{[(2S,4S)-4-[9-({4-[3-(2,4-dihydroxy-5-isopropylphenyl)-5-hydroxy-1,2,4-triazol-4-yl]phenyl}methyl)-3,9-diazaspiro[5.5]undecan-3-yl]-1-methylpyrrolidin-2-yl]methoxy}-5H,6H,8H-pyrido[3,4-d]pyrimidin-4-yl]-1-(prop-2-enoyl)piperazin-2-yl]acetonitrile], for which the IC50 at KRAS(G12C) [3] and at HSP90a protein was under 100 nM throughout. This molecule also yielded a DC50 at KRAS(G12C) [4] of 100 to 1000 nM. Besides, the EC50 in test [2] was under 100 nM.
Consider `C=CC(=O)N1CCN(c2nc(OCC3CN(Cc4ccc(-n5c(O)nnc5-c5cc(C)c(O)cc5O)cc4)C3)nc3c2CCN(c2cccc4cccc(Cl)c24)C3)C[C@@H]1CC#N` [Compound 232, (S)-2-(1-acryloyl-4-(7-(8-chloronaphthalen-1-yl)-2-((1-(4-(3-(2,4-dihydroxy-5-methylphenyl)-5-hydroxy-4H-1,2,4-triazol-4-yl)benzyl)azetidin-3-yl)methoxy)-5,6,7,8-tetrahydropyrido[3,4-d]pyrimidin-4-yl)piperazin-2-yl)acetonitrile], for which the IC50 at KRAS(G12C) [3] and at HSP90a protein was under 100 nM in each case. At KRAS(G12C) [4], this molecule came in with a DC50 of over 1000 nM. This molecule displayed an EC50 in test [2] of over 1000 nM.
